Results: patent publication US8945595B2, “Insect repellent and attractants” (The Regents of the University of California, priority 2009, dated 2015)
Entries after “also recorded” stand apart in the source; their conditions may differ.

How the values were obtained:
[1] = test system: CO2-sensitive ab1C neurons; assay: single-sensillum electrophysiology, inhibition of CO2 response of ab1C neurons; format: cell-based, Drosophila; settings: odourant 10^-2; 3-sec 0.3% CO2 with 1-sec odourant
Description: Representative traces (top) and mean responses (bottom) from single-sensillum electrophysiology of ab1 sensilla in mutant flies; spikes represent activity of the ab1C neuron. a, 3-sec stimulus of odourant overlaid with a 1-sec application of 0.3% CO2. b, 3-sec stimulus of 0.3% CO2 overlaid with a 1-sec application of odourant. PO=paraffin oil, d4on=2,3-butanedione, 6ol=1-hexanol. n=6, error bars=s.e.m. Spikes per second were counted during the 1-sec stimulus period, and spontaneous activity subtracted. (For data in a and b, T-test, *P<0.001, **P<0.005, ***P<0.01, ****P<0.05) c, ab1C responses to indicated concentrations of CO2 in the presence of solvent (PO), 1-hexanol (6ol) or 2,3-butanedione (d4on). Odourants were tested at 10^−1 dilution. Firing rates were counted in consecutive 0.1-sec bins. n=3, error bars=s.e.m.
Bars indicate stimulus periods for 0.3% CO2, and overlays with 1-hexanol (6ol) or 2,3-butanedione (d4on) at the indicated concentrations. b, Recovery of ab1C responsiveness to a 0.5-sec, 0.3% CO2 stimulus applied every 30-sec after initial treatment with 3-sec stimulus of either d4on (10^−1) or paraffin oil (PO). n=5, error bars=s.e.m., (T-test, *P<0.005, **<0.01, ***P<0.05). c, CO2 response inhibition by structurally related compounds. A 3-sec stimulus of 0.3% CO2 was delivered in combination with 1-sec application of indicated odourant (10^−2) as in a. Percent increase or decrease in mean ab1C response was calculated relative to mean response of paraffin oil. n=5. d, Structures of CO2 and the 4 strongest antagonists. e-f, show mean odourant responses. e, Odourants were tested on ab1C neurons in Or83b2 flies at 10^−2 dilution in paraffin oil. Bars represent values after subtraction of mean response to paraffin oil. n=3. f, Odourants at indicated concentrations were tested on ab3A neuron in wild-type (wt) and ΔHalo (AH) mutants that lack Or22a and Or22b. Bars represent values after subtraction of spontaneous activity. n=5, error bars=s.e.m.
FIG. 16 is a schematic diagram of an odour-delivery system to maintain steady concentration of CO2 in binary mixture experiments. Cartridges were made from Pasteur pipettes with pre-filled cotton wool inserts. […] odorant dissolved in paraffin oil (at specific concentrations) was applied to the cotton wool, and a 1.5 ml disposable tip attached to the open end to make the “odour cartridge”. A controlled “humidified air flow” was generated from a compressed air cylinder by bubbling through water, and passed through a glass tube, and released over the recording arena holding the Drosophila. A C-55 stimulus controller (Syntech) was used to generate an additional activated-charcoal filtered continuous air flow of 5 ml/sec which was delivered into the humidified airstream through a “blank cartridge” with the tip placed through a hole in the tube. To generate controlled odourant stimulus the C-55 stimulus controller was used to switch air flow from the “continuous air flow” to “odor stimulus flow” channel. An additional CO2 stimulus was pulsed through a separate system that delivered controlled pulses (variable 2.5 ml/sec-6.5 ml/sec) into the same humidified airstream, from either a 1%, 5% or 100% cylinder of CO2 (Airgas).
Extracellular single-unit recordings were performed. Odourant stimuli were delivered via Pasteur pipette odour cartridges (see, FIG. 16). Chemicals were of the highest purity available, typically>99% (Sigma-Aldrich). All odourants were diluted in paraffin oil. A controlled volume of air 5 ml/sec was puffed through the odour cartridge containing vapours, and was delivered into a constant humidified airstream of 10 ml/sec that was passed over the fly antenna. […] CO2 stimulus was pulsed through a separate delivery system that delivered controlled pulses (variable 2.5 ml/sec-6.5 ml/sec) into the same humidified airstream, from either a 1%, 5% or 100% tank of CO2 (Airgas). […]

[2] = test system: CO2 sensitive neuron (A neuron) of peg sensillum; assay: single-sensillum electrophysiology of maxillary palp peg sensillum, inhibition of CO2 response; format: cell-based, Culex quinquefasciatus; settings: 3-sec pre-exposure, 10^-1; 0.25% CO2 impulse every 30-sec over 6-min
Procedure: (§1) FIG. 2 depicts electrophysiology measurements of the peg sensillum on the mosquito maxillary palp. The palp, indicated in brown in the schematic of the mosquito head, has several peg sensilla. Each peg sensilla (grey club-like structure in the center) contains three olfactory neurons A, B and C as indicated, of which the ‘A’ neuron gives a robust and specific increase in frequency of action potentials in response to a stimulus of CO2. Extracellular single-unit recordings are performed by inserting a glass microelectrode into the peg sensilla, and puffing an odor such as CO2 towards the mosquito maxillary palps. The signal is amplified to obtain the trace of action potentials.
(§2) Action potential traces from the peg sensillum of the maxillary palp show spike amplitudes from three neurons, where the highest spike (from neuron A) indicates the CO2 response. A 3-sec stimulus of 0.3% CO2 (indicated by longer black bar), is overlaid with a 0.5-sec stimulus of candidate odors. […]
The recovery of the response to a 0.25% impulse (top) or 0.3% impulse (bottom) of CO2 was measured every 30-sec over a 6-min time period, after an initial 3-sec pre-exposure with (A) butanal (10^−1) (top), or (B) an ‘odor mixture’ consisting of 1-hexanol, pentanal, butanal, and 2,3-butanedione at 10^−2 concentration (bottom). […]

[3] = test system: CO2 sensitive neuron (A neuron) of peg sensillum; assay: as above; format: cell-based, Aedes aegypti; settings: 3-sec pre-exposure, 10^-1; 0.3% CO2 impulse every 30-sec over 6-min
Procedure: as §1
as §2, with “bar),” for “bar), is”, “1-sec” for “0.5-sec”, “odor. CO2 and odor stimuli are applied in the same manner as discussed above.” for “candidate odors.”
The recovery of the response to a 0.3% impulse of CO2 was measured every 30-sec over a 6-min time period, after an initial 3-sec pre-exposure with (A) butanal (10^−1), or (B) an ‘odor mixture’ consisting of 1-hexanol, pentanal, butanal, and 2,3-butanedione at 10^−2 concentration. […]

[4] = test system: CO2 sensitive A neuron of peg sensillum; assay: activation of CO2 sensitive neuron with a volatile odorant; format: cell-based, Culex quinquefasciatus; settings: indicated concentrations
Procedure: as §1
(a) Action potential traces from the peg sensillum of the maxillary palp show spike amplitudes from three neurons, where the spikes with the largest amplitude belongs to the CO2 sensitive A neuron. (b) 1 sec of the indicated dilution 2,3-butanedione is puffed to Aedes aegypti. (c) 1 sec of indicated odor is puffed to Anopheles gambiae. (d) butanone and (e) 2,3-butanedione are given to Culex quinquefasciatus at the indicated concentrations. PO=paraffin oil. n=5. Baseline activity subtracted. Error bars indicate SEM.

In the case of `CCCCC=O` [pentanal], the “CO2 response inhibition by structurally related odourants” value [1] was “effective inhibitors”.

`CCCC=O` [butanal] was tested, and the “CO2 response after pre-exposure” value [2] was “long term reduction in CO2 response”, the “CO2 response inhibition by structurally related odourants” value [1] was “effective inhibitors” and the “CO2 response after pre-exposure” value [3] was “long term reduction in CO2 response”.

`CCC(C)=O` [butanone] was tested, and the “activation of CO2 sensitive neuron” value [4] was “activation; also recorded: activator”.
